This assay has as its system Aβ42. As to the kind of experiment: In vitro cell screening assay in H4 cells expressing human APP751: Aβ42 by sandwich ELISA. The format is cell-based. The conditions noted are these: compounds 0.003-10 μM, incubated overnight (16-18 h), sandwich ELISA of supernatant. An outline of the steps: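 H4 neuroglioma cells stably expressing wild-type human APP751, switched to Pro293 medium and treated with compounds (0.003-10 μM, 0.33% DMSO) for 16-18 h at 37 °C. Supernatant Aβ42 quantified by sandwich ELISA (C-terminal capture, 4G8-HRP detection, A450); EC50 by sigmoidal fit normalized to DMSO and DAPT controls.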

The compound `COc1nc(C2=NOCC(c3cn(C4CC4)c4cccc(F)c34)N2)ccc1-n1cnc(C)c1` (single isomer, unassigned; (-)) [Example 222B, (−)-5-(1-cyclopropyl-4-fluoro-1H-indol-3-yl)-3-(6-methoxy-5-(4-methyl-1H-imidazol-1-yl)pyridin-2-yl)-5,6-dihydro-4H-1,2,4-oxadiazine] yielded an EC50 of 68.6 nM.
The compound `COc1nc(C2=NOCC(c3ccc4nc(C)sc4c3)N2)ccc1-n1cnc(C)c1` (single isomer, unassigned; (+)) [Example 238B, (+)-3-(6-methoxy-5-(4-methyl-1H-imidazol-1-yl)pyridin-2-yl)-5-(2-methylbenzo[d]thiazol-6-yl)-5,6-dihydro-4H-1,2,4-oxadiazine] registered an EC50 of 113 nM.
`COc1nc(C2=NOCC(c3ccc4ncsc4c3)N2)ccc1-n1cnc(C)c1` (single isomer, unassigned; (+)) [Example 183B, (+)-5-(benzo [d]thiazol-6-yl)-3-(6-methoxy-5-(4-methyl-1H-imidazol-1-yl)pyridin-2-yl)-5,6-dihydro-4H-1,2,4-oxadiazine]: the midpoint of the response, the EC50, lay at 260 nM.
In turn, `COc1nc(C2=NOCC(c3ccc(C(F)(F)F)c(Cl)c3)N2)ccc1-n1cnc(C)c1` (single isomer, unassigned; (-)) [Example 262A, (−)-5-(3-chloro-4-(trifluoromethyl)phenyl)-3-(6-methoxy-5-(4-methyl-1H-imidazol-1-yl)pyridin-2-yl)-5,6-dihydro-4H-1,2,4-oxadiazine] displayed an EC50 above 3000 nM.
To `COc1cccc(C2CON=C(c3ccc(-n4cnc(C)c4)c(OC)n3)N2)c1` (single isomer, unassigned; (-)) [Example 145A, (−)-3-(6-methoxy-5-(4-methyl-1H-imidazol-1-yl)pyridin-2-yl)-5-(3-methoxyphenyl)-5,6-dihydro-4H-1,2,4-oxadiazine] belongs 2670 nM; to `COc1nc(C2=NOCC(c3cn(C(C)C)c4cccc(F)c34)N2)ccc1-n1cnc(C)c1` (single isomer, unassigned; (+)) [Example 196A, (+)-5-(4-fluoro-1-isopropyl-1H-indol-3-yl)-3-(6-methoxy-5-(4-methyl-1H-imidazol-1-yl)pyridin-2-yl)-5,6-dihydro-4H-1,2,4-oxadiazine], 22.5 nM; to `COc1nc(C2=NOCC(c3ccc(OC(F)F)cc3)N2)ccc1-n1cnc(C)c1` (single isomer, unassigned; (+)) [Example 93B, (+)-5-(4-(difluoromethoxy)phenyl)-3-(6-methoxy-5-(4-methyl-1H-imidazol-1-yl)pyridin-2-yl)-5,6-dihydro-4H-1,2,4-oxadiazine], 73 nM.
For the compound `COc1nc(C2=NOCC(c3cccc(C4CC4)c3)N2)ccc1-n1cnc(C)c1` (single isomer, unassigned; (+)) [Example 127B, (+)-5-(3-cyclopropylphenyl)-3-(6-methoxy-5-(4-methyl-1H-imidazol-1-yl)pyridin-2-yl)-5,6-dihydro-4H-1,2,4-oxadiazine], the EC50 amounted to 23 nM.
Then `COc1nc(C2=NOCC(c3ccc(Cl)c(C4CC4)c3)N2)ccc1-n1cnc(C)c1` (single isomer, unassigned; (+)) [Example 239B, (+)-5-(4-chloro-3-cyclopropylphenyl)-3-(6-methoxy-5-(4-methyl-1H-imidazol-1-yl)pyridin-2-yl)-5,6-dihydro-4H-1,2,4-oxadiazine], with 13.1 nM.
Then `COc1nc(C2=NOCC(c3ccc(Cl)cc3C)N2C)ccc1-n1cnc(C)c1` (single isomer, unassigned) [Example 27A, 5-(4-chloro-2-methylphenyl)-3-(6-methoxy-5-(4-methyl-1H-imidazol-1-yl)pyridin-2-yl)-4-methyl-5,6-dihydro-4H-1,2,4-oxadiazine], with 2180 nM.

The record behind these values is patent US9802927B2, “Oxadiazine compounds and methods of use thereof” (Denali Therapeutics, Inc., priority 2015, dated 2017).
